Experimental data as given in patent US7115624B1, “Method of inhibiting protein tyrosine phosphatase 1B and/or T-cell protein tyrosine phosphatase 4 and/or other PTPases with an Asp residue at position 48” (Novo Nordisk A/S, priority 1999, dated 2006).
Like-named read-outs stand apart in the source and are kept apart here.

What was measured:
PTPα = biological target: T1, PTPα (Homo sapiens, UniProt P18433); test: PTPase inhibition, p-nitrophenyl phosphate substrate, Ki; format: biochemical
T1 construct: PTPα D1

PTP1B = biological target: T2, PTP1B (Homo sapiens, UniProt P18031); test: as above; format: biochemical
T2 sequence (P18031 1-321): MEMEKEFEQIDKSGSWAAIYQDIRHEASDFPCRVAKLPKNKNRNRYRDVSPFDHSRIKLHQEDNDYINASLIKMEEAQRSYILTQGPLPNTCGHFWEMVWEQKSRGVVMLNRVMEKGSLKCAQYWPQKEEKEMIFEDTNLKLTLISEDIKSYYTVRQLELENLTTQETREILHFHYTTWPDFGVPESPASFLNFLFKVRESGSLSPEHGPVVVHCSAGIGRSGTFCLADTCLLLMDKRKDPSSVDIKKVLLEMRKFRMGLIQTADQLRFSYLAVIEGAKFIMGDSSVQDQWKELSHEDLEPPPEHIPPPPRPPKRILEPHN
Method: (§1) The assay conditions are as follows. Appropriate concentrations of the compounds of the invention (e.g., 0.1 to 100 μM) are added to the reaction mixtures containing different concentrations of the substrate, p-nitrophenyl phosphate (range: 0.16 to 10 mM—final assay concentration). The buffer used was 50 mM HEPES pH 7.0, 100 mM sodium chloride, 0.1% (w/v) bovine serum albumin, 5 mM glutathione, and 1 mM EDTA. The reaction was started by addition of the enzyme and carried out in microtiter plates at 25° C. for 60 minutes. The reactions are stopped by addition of NaOH. […] The data are analyzed using nonlinear regression fit to classical Michaelis Menten enzyme kinetic models. Inhibition is expressed as Ki values in μM.

PTPβ = PTPβ (Homo sapiens, UniProt P23467); test: as above; format: biochemical
Method: as §1

SHP-1 = SHP-1 (Homo sapiens, UniProt P29350); test: biochemical
CD45 = biological target: T3, CD45 (Homo sapiens, UniProt P08575); test: PTPase inhibition, p-nitrophenyl phosphate substrate, Ki; format: biochemical; conditions: read-out: Ki values, CD45 D1D2
T3 sequence (P08575 599-1306 limits assumed): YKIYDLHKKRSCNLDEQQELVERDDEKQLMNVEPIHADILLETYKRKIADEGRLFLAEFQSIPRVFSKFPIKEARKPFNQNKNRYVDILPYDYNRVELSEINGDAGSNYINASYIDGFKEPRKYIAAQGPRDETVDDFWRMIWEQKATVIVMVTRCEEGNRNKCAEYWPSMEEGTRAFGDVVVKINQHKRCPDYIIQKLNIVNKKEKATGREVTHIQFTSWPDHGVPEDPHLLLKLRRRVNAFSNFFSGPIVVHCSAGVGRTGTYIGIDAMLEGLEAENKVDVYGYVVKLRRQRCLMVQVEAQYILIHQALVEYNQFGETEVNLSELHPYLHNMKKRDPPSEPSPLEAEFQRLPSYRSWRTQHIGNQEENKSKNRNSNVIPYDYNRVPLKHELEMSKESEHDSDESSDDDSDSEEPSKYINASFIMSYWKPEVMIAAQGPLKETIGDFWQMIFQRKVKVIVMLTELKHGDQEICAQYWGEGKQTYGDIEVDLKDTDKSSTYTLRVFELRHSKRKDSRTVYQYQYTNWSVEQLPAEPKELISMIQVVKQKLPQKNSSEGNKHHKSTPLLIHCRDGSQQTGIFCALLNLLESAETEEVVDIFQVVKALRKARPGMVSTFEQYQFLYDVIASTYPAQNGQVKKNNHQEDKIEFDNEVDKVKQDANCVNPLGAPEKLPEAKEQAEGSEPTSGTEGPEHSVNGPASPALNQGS
Method: as §1

PTPε = biological target: T4, PTPε (Homo sapiens, UniProt P23469); test: as above; format: biochemical
T4 construct: PTPε D1
Method: as §1

LAR = biological target: T5, LAR (Homo sapiens, UniProt P10586); test: as above; format: biochemical; conditions: pH 5.5; D1D2; read-out: Ki values, LAR D1D2
T5 sequence (P10586 1285-1907 limits assumed): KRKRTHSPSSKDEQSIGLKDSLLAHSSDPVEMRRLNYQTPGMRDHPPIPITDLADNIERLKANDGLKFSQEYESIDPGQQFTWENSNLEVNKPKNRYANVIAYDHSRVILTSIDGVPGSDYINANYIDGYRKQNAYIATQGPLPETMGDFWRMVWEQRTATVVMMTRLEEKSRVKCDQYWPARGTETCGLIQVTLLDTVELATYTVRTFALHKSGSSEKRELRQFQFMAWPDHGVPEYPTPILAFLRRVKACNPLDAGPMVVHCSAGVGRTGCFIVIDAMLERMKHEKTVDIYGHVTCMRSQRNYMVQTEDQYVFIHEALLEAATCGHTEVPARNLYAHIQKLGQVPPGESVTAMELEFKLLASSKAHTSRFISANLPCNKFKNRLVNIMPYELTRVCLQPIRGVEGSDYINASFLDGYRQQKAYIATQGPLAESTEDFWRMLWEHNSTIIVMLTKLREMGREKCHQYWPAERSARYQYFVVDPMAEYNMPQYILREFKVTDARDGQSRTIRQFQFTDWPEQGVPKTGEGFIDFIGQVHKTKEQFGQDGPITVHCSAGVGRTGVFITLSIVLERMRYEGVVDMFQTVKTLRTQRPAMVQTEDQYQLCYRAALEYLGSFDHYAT
Method: The compounds are evaluated for biological activity with a truncated form of PTP1B (corresponding to the first 321 amino acids), which was expressed in E. coli and purified to apparent homogeneity using published procedures well-known to those skilled in the art. The enzyme reactions are carried out using standard conditions essentially as described by Burke et al. (Biochemistry 35; 15989–15996 (1996)) incorporated by reference. […] Appropriate concentrations of the compounds of the invention (e.g., 0.1 to 100 μM) are added to the reaction mixtures containing different concentrations of the substrate, p-nitrophenyl phosphate (range: 0.16 to 10 mM—final assay concentration). The buffer used was 50 mM HEPES pH 7.0, 100 mM sodium chloride, 0.1% (w/v) bovine serum albumin, 5 mM glutathione, and 1 mM EDTA. The reaction was started by addition of the enzyme and carried out in microtiter plates at 25° C. for 60 minutes. The reactions are stopped by addition of NaOH. The enzyme activity was determined by measurement of the absorbance at 405 nm with appropriate corrections for absorbance at 405 nm of the compounds and p-nitrophenyl phosphate. The data are analyzed using nonlinear regression fit to classical Michaelis Menten enzyme kinetic models. Inhibition is expressed as Ki values in μM.

[1] = pKa of the tetrahydropyridine ring; format: physicochemical; conditions: positively charged tetrahydropyridine ring
[2] = pH 7 (Table 6), read-out: Ki, PTP α residue 48 Asn
[3] = pH 7 (Table 6), read-out: Ki, PTP1B residue 48 Asp
[4] = pH 7 (Table 6), read-out: Ki, PTP β residue 48 Asn
[5] = pH 5.5, D1, read-out: Ki values, PTPα D1
[6] = pH 5.5, read-out: Ki values, PTPβ
[7] = pH 5.5, D1, read-out: Ki values, PTPε D1
[8] = pH 7, D1 (Table 3), read-out: Ki values, PTPα D1
[9] = pH 7 (Table 3), read-out: Ki values, PTPβ
[10] = pH 7, D1 (Table 3), read-out: Ki values, PTPε D1
[11] = pH 5.5, read-out: Ki values, PTP1B
[12] = pH 7 (Table 6), read-out: Ki, PTP ε residue 48 Asn

Chain of SHP-1 (P29350 whole entry): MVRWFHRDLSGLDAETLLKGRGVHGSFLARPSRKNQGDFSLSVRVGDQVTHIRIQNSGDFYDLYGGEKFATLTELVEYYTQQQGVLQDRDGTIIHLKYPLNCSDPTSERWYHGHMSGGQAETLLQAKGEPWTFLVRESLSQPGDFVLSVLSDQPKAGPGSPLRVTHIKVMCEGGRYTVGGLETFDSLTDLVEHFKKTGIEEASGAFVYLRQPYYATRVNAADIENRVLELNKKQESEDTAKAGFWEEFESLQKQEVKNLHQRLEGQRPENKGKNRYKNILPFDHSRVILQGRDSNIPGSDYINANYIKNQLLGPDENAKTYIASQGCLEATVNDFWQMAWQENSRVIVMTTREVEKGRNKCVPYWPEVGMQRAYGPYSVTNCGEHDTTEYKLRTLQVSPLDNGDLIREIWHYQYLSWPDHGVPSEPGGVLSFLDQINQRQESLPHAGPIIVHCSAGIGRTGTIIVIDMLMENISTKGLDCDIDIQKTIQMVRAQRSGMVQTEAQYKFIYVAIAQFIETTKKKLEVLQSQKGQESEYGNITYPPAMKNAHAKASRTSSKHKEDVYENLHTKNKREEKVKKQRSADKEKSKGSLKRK
T4 sequence (P23469 135-394 limits assumed): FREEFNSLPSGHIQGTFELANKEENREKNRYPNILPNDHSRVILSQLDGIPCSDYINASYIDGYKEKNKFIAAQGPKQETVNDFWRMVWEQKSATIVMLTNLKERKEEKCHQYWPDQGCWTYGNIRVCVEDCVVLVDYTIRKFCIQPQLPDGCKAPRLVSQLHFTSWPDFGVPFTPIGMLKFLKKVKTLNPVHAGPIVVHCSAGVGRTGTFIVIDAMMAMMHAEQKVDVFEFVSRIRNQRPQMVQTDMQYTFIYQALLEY
T1 sequence (P18433 241-501 limits assumed): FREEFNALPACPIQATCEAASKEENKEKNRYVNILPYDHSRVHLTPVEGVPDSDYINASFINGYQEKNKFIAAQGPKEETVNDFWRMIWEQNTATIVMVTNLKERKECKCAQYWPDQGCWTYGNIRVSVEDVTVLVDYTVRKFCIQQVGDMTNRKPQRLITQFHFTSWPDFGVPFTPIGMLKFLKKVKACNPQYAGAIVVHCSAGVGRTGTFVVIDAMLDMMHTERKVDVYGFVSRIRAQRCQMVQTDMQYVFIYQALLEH
Chain of PTPβ (P23467 1703-1963 limits assumed): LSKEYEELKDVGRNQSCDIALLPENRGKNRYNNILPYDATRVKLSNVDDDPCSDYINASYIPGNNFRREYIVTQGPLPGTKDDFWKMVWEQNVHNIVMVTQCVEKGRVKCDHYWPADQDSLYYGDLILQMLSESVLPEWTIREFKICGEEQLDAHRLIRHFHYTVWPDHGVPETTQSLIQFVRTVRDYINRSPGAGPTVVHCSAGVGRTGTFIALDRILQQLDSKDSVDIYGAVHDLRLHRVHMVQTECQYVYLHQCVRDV

Row | Compound | Ki (PTP1B; [3]) | Ki (PTPβ; [4]) | Ki (PTPα; [5]) | Ki (SHP-1) | Ki (CD45; pH 5.5, D1D2) | Ki (PTPβ; [6]) | Ki (PTPε; [7]) | Ki (LAR) | further results
1 | O=C(O)C(=O)Nc1sc2c(c1C(=O)O)C[C@@H](CN1C(=O)c3ccccc3C1=O)NC2 [Example 50, (L)-5-(1,3-Dioxo-1,3-dihydro-isoindol-2-ylmethyl)-2-(oxalyl-amino)-4,5,6,7-tetrahydro-thieno[2,3-c]pyridine-3-carboxylic acid] | 0.07 µM | 8 µM |  |  |  |  |  |  | Ki (PTPα; [2]): 1000 µM
2 | O=C(O)C(=O)Nc1sc2c(c1C(=O)O)CCCC2 [Example 2-OBTA] |  |  | 300 µM | 120 µM | 40 µM | 14 µM | 45 µM | 400 µM | 
3 | O=C(O)C(=O)Nc1sc2c(c1C(=O)O)CC(CN1C(=O)c3ccccc3C1=O)NC2 (centres unmarked) [Example 49, 5-(1,3-Dioxo-1,3-dihydro-isoindol-2-ylmethyl)-2-(oxalyl-amino)-4,5,6,7-tetrahydro-thieno[2,3-c]pyridine-3-carboxylic acid] | 0.085 µM | 8.6 µM |  |  |  |  |  |  | 
4 | O=C(O)C(=O)Nc1sc2c(c1C(=O)O)CC(CN1C(=O)c3cccc(O)c3C1=O)OC2 (centres unmarked) [Example 4, 5-(4-Hydroxy-1,3-dioxo-1,3-dihydro-isoindol-2-ylmethyl)-2-(oxalyl-amino)-4,7-dihydro-5H-thieno[2,3-c]pyran-3-carboxylic acid] |  |  |  |  |  |  |  |  | Ki (PTPα; [8]): 93 µM; Ki (PTP1B; pH 7 (Table 3), read-out: Ki values, PTP1B): 1.9 µM; Ki (CD45; pH 7, D1D2 (Table 3)): 130 µM; Ki (PTPβ; [9]): 1.1 µM; Ki (PTPε; [10]): 11 µM
5 | COc1ccc2c(c1)C(=O)N(CC1OCCc3c1sc(NC(=O)C(=O)O)c3C(=O)O)C2=O (centres unmarked) [Example 26, 7-(5-Methoxy-1,3-dioxo-1,3-dihydro-isoindol-2-ylmethyl)-2-(oxalyl-amino)-4,7-dihydro-5H-thieno[2,3-c]pyran-3-carboxylic-acid] |  |  |  |  |  |  |  |  | Ki (PTPα; [8]): 620 µM; Ki (CD45; pH 7, D1D2 (Table 3)): 380 µM; Ki (PTPβ; [9]): 8.9 µM; Ki (PTPε; [10]): 330 µM
6 | O=C(O)C(=O)Nc1sccc1C(=O)O [Example 2-OTA, 2-(oxalyl-amino)-thiophene-3-carboxylic acid] |  |  | 1700 µM | 60 µM | 70 µM | 18 µM | 590 µM | > 2000 µM | Ki (PTP1B; [11]): 62 µM
7 | O=C(O)C(=O)Nc1ccsc1C(=O)O [Example 3-OTA, 3-(oxalyl-amino)-thiophene-2-carboxylic acid] |  |  | 500 µM | > 2000 µM | 250 µM | 160 µM | 350 µM | > 2000 µM | Ki (PTP1B; [11]): 61 µM
8 | O=C(O)C(=O)Nc1sc2c(c1C(=O)O)CCOC2 [Example 2-OTPA, 2-(Oxalyl-amino)-4,7-dihydro-thieno[2,3-c]pyran-3-carboxylic acid] |  |  | 270 µM |  |  |  |  |  | Ki (PTPα; [8]): 1100 µM
9 | CCOC(=O)N1Cc2sc(NC(=O)C(=O)O)c(C(=O)O)c2CC1CN1C(=O)c2ccccc2C1=O (centres unmarked) [Example 48, 5-(1,3-Dioxo-1,3-dihydro-isoindol-2-ylmethyl)-2-(oxalyl-amino)-4,5,6,7-tetrahydro-thieno[2,3-c]pyridine-3,6-dicarboxylic acid 6-ethyl ester] | 0.25 µM | 47 µM |  |  |  |  |  |  | Ki (PTPα; [2]): 900 µM; Ki (PTPε; [12]): 380 µM
10 | O=C(O)C(=O)Nc1sc2c(c1C(=O)O)CC(CN1C(=O)c3cccc(O)c3C1=O)NC2 (centres unmarked) [Example 52, 5-(4-Hydroxy-1,3-dioxo-1,3-dihydro-isoindol-2-ylmethyl)-2-(oxalyl-amino)-4,5,6,7-tetrahydro-thieno[2,3-c]pyridine-3-carboxylic acid] | 1.2 µM | 107 µM |  |  |  |  |  |  | Ki (PTPα; [2]): > 400 µM; fold increase of affinity for PTP1B compared to 2-OTPyA (PTP1B): about 13 fold; Ki (PTPε; [12]): > 500 µM
11 | O=C(O)C(=O)Nc1sc2c(c1C(=O)O)CCNC2 [Example 2-OTPyA, 2-(Oxalyl-amino)-4,5,6,7-tetrahydro-thieno[2,3-c]pyridine-3-carboxylic acid] |  |  | > 2000 µM | 900 µM | 110 µM | 150 µM | 600 µM | > 2000 µM | pKa [1]: > 10; Ki (PTP1B; [11]): 0.3 µM
12 | O=C(O)C(=O)Nc1ccccc1C(=O)O [OBA, 2-(oxalyl-amino)-benzoic acid] |  |  | 700 µM | 530 µM | 160 µM | 32 µM | 125 µM | > 2000 µM | 
